Measured values taken from patent US11173151B2, “Substituted triazole derivatives and uses thereof” (BAYER AKTIENGESELLSCHAFT, priority 2017, dated 2021).
pIC50: −log10 of the molar value.

Legend:
[1] = target: T1, human V2 receptor (Homo sapiens, UniProt P30518); assay: Cellular in vitro assay for determining vasopressin receptor activity, V2 receptor cell line (CHO, CRE-luciferase); format: cell-based; conditions: CHO cell line transfected with human V2 receptor; [Arg8]-vasopressin at EC50 concentration, 3 hours; read-out: IC50 hV2
T1 construct: expressed in transfected cells; host or cells: CHO K1 (ATCC) expressing firefly luciferase under a CRE-responsive promoter
T1 sequence (P30518 whole entry): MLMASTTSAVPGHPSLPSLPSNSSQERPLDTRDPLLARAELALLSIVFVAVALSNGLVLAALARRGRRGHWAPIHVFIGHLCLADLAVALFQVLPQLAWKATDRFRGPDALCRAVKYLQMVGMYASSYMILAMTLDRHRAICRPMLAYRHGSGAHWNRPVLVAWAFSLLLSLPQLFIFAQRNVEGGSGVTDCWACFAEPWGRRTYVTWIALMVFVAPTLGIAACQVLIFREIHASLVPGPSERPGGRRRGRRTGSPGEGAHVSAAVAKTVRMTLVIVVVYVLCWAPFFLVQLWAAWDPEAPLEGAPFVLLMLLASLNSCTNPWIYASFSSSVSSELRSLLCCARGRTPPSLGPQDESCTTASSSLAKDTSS

[2] = target: T2, human V1a receptor (Homo sapiens, UniProt P37288); assay: Cellular in vitro assay for determining vasopressin receptor activity, V1a receptor cell line (CHO, aequorin luminescence); format: cell-based; conditions: for pIC50: CHO cell line transfected with human V1a receptor, [Arg]-vasopressin at EC50 concentration, read-out: IC50 hV1a; for ratio IC50 hV2/hV1a: selectivity ratio IC50 hV2 / IC50 hV1a
T2 construct: expressed in transfected cells; host or cells: CHO K1 (ATCC), also stably transfected with a modified aequorin
T2 sequence (P37288 whole entry): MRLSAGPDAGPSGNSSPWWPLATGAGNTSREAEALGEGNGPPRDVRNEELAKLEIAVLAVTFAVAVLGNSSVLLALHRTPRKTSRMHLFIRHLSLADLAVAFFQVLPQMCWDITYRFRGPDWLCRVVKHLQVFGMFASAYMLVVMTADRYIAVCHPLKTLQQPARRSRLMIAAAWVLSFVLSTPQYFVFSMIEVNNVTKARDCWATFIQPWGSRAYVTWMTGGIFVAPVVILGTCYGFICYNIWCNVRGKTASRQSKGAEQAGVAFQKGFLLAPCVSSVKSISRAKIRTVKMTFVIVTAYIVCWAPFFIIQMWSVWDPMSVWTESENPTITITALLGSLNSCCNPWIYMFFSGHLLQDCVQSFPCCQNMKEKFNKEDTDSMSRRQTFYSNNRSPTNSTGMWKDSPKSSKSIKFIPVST
Method in brief: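 IC50 from inhibition of [Arg]-vasopressin (EC50 concentration)-evoked aequorin luminescence in CHO K1 cells, with 10-min compound pretreatment.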

| SMILES | pIC50 [1] | pIC50 [2] | ratio IC50 hV2/hV1a [2] |
| --- | --- | --- | --- |
| CN1CCN(C(=O)c2ccccc2-n2cnc(Cn3nc(-c4ccc(Cl)cc4)n(C[C@H](O)C(F)(F)F)c3=O)n2)CC1=O [Example 288, 4-{2-[3-({3-(4-Chlorophenyl)-5-oxo-4-[(2S)-3,3,3-trifluoro-2-hydroxypropyl]-4,5-dihydro-1H-1,2,4-triazol-1-yl}methyl)-1H-1,2,4-triazol-1-yl]benzoyl}-1-methylpiperazin-2-one] | 5.37 | 7.34 | 92.4 |
| CN(CC1CC1)C(=O)c1ccccc1-n1cnc(Cn2nc(-c3ccc(Cl)cc3)n(C[C@H](O)C(F)(F)F)c2=O)n1 [Example 289, 2-[3-({3-(4-Chlorophenyl)-5-oxo-4-[(2S)-3,3,3-trifluoro-2-hydroxypropyl]-4,5-dihydro-1H-1,2,4-triazol-1-yl}methyl)-1H-1,2,4-triazol-1-yl]-N-(cyclopropylmethyl)-N-methylbenzamide] | 6.35 | 9.08 | 536.1 |
| O=C(c1ccccc1-n1cnc(Cn2nc(-c3ccc(Cl)cc3)n(C[C@H](O)C(F)(F)F)c2=O)n1)N1CC(O)C1 [Example 290, 5-(4-Chlorophenyl)-2-[(1-{2-[(3-hydroxyazetidin-1-yl)carbonyl]phenyl}-1H-1,2,4-triazol-3-yl)methyl]-4-[(2S)-3,3,3-trifluoro-2-hydroxypropyl]-2,4-dihydro-3H-1,2,4-triazol-3-one] | 6.07 | 8.04 | 92.9 |
| O=C(c1ccccc1-n1cnc(Cn2nc(-c3ccc(Cl)cc3)n(C[C@H](O)C(F)(F)F)c2=O)n1)N1CC[C@@H](O)C1 [Example 291, 5-(4-Chlorophenyl)-2-{[1-(2-{[(3R)-3-hydroxypyrrolidin-1-yl]carbonyl}phenyl)-1H-1,2,4-triazol-3-yl]methyl}-4-[(2S)-3,3,3-trifluoro-2-hydroxypropyl]-2,4-dihydro-3H-1,2,4-triazol-3-one] | 5.94 | 8.18 | 174.2 |
| CC1C=CC(C)N1C(=O)c1ccccc1-n1cnc(Cn2nc(-c3ccc(Cl)cc3)n(C[C@H](O)C(F)(F)F)c2=O)n1 (stereo partly drawn) [Example 293, 5-(4-Chlorophenyl)-2-[(1-{2-[(2,5-dimethyl-2,5-dihydro-1H-pyrrol-1-yl)carbonyl]phenyl}-1H-1,2,4-triazol-3-yl)methyl]-4-[(2S)-3,3,3-trifluoro-2-hydroxypropyl]-2,4-dihydro-3H-1,2,4-triazol-3-one] | 6.08 | 8.33 | 178.7 |
| C=CCN(C)C(=O)c1ccccc1-n1cnc(Cn2nc(-c3ccc(Cl)cc3)n(C[C@H](O)C(F)(F)F)c2=O)n1 [Example 294, 2-[3-({3-(4-Chlorophenyl)-5-oxo-4-[(2S)-3,3,3-trifluoro-2-hydroxypropyl]-4,5-dihydro-1H-1,2,4-triazol-1-yl}methyl)-1H-1,2,4-triazol-1-yl]-N-methyl-N-(prop-2-en-1-yl)benzamide] | 5.81 | 8.68 | 735.7 |
| CCN(C)C(=O)c1ccccc1-n1cnc(Cn2nc(-c3ccc(Cl)cc3)n(C[C@H](O)C(F)(F)F)c2=O)n1 [Example 295, 2-[3-({3-(4-Chlorophenyl)-5-oxo-4-[(2S)-3,3,3-trifluoro-2-hydroxypropyl]-4,5-dihydro-1H-1,2,4-triazol-1-yl}methyl)-1H-1,2,4-triazol-1-yl]-N-ethyl-N-methylbenzamide] | 7.11 | 8.60 | 30.8 |
| Cc1cccnc1NC(=O)c1ccccc1-n1cnc(Cn2nc(-c3ccc(Cl)cc3)n(C[C@H](O)C(F)(F)F)c2=O)n1 [Example 296, 2-[3-({3-(4-Chlorophenyl)-5-oxo-4-[(2S)-3,3,3-trifluoro-2-hydroxypropyl]-4,5-dihydro-1H-1,2,4-triazol-1-yl}methyl)-1H-1,2,4-triazol-1-yl]-N-(3-methylpyridin-2-yl)benzamide] | 6.30 | 8.40 | 126.6 |
| O=C(NCc1ccccc1)c1ccccc1-n1cnc(Cn2nc(-c3ccc(Cl)cc3)n(C[C@H](O)C(F)(F)F)c2=O)n1 [Example 299, N-Benzyl-2-[3-({3-(4-chlorophenyl)-5-oxo-4-[(2S)-3,3,3-trifluoro-2-hydroxypropyl]-4,5-dihydro-1H-1,2,4-triazol-1-yl}methyl)-1H-1,2,4-triazol-1-yl]benzamide] | 6.58 | 8.36 | 60.2 |
| O=C(Nc1ccncc1)c1ccccc1-n1cnc(Cn2nc(-c3ccc(Cl)cc3)n(C[C@H](O)C(F)(F)F)c2=O)n1 [Example 300, 2-[3-({3-(4-Chlorophenyl)-5-oxo-4-[(2S)-3,3,3-trifluoro-2-hydroxypropyl]-4,5-dihydro-1H-1,2,4-triazol-1-yl}methyl)-1H-1,2,4-triazol-1-yl]-N-(pyridin-4-yl)benzamide] | 6.17 | 8.99 | 656.9 |
| O=C(NCc1ccccn1)c1ccccc1-n1cnc(Cn2nc(-c3ccc(Cl)cc3)n(C[C@H](O)C(F)(F)F)c2=O)n1 [Example 301, 2-[3-({3-(4-Chlorophenyl)-5-oxo-4-[(2S)-3,3,3-trifluoro-2-hydroxypropyl]-4,5-dihydro-1H-1,2,4-triazol-1-yl}methyl)-1H-1,2,4-triazol-1-yl]-N-(pyridin-2-ylmethyl)benzamide] | 6.21 | 8.06 | 69.7 |
| O=C(NCc1ccncc1)c1ccccc1-n1cnc(Cn2nc(-c3ccc(Cl)cc3)n(C[C@H](O)C(F)(F)F)c2=O)n1 [Example 302, 2-[3-({3-(4-Chlorophenyl)-5-oxo-4-[(2S)-3,3,3-trifluoro-2-hydroxypropyl]-4,5-dihydro-1H-1,2,4-triazol-1-yl}methyl)-1H-1,2,4-triazol-1-yl]-N-(pyridin-4-ylmethyl)benzamide] | 5.48 | 8.43 | 880.0 |
| O=C(Nc1ccc(F)cc1F)c1ccccc1-n1cnc(Cn2nc(-c3ccc(Cl)cc3)n(C[C@H](O)C(F)(F)F)c2=O)n1 [Example 303, 2-[3-({3-(4-Chlorophenyl)-5-oxo-4-[(2S)-3,3,3-trifluoro-2-hydroxypropyl]-4,5-dihydro-1H-1,2,4-triazol-1-yl}methyl)-1H-1,2,4-triazol-1-yl]-N-(2,4-difluorophenyl)benzamide] | 6.30 | 8.67 | 234.9 |
| O=C(Nc1cc(F)ccc1F)c1ccccc1-n1cnc(Cn2nc(-c3ccc(Cl)cc3)n(C[C@H](O)C(F)(F)F)c2=O)n1 [Example 304, 2-[3-({3-(4-Chlorophenyl)-5-oxo-4-[(2S)-3,3,3-trifluoro-2-hydroxypropyl]-4,5-dihydro-1H-1,2,4-triazol-1-yl}methyl)-1H-1,2,4-triazol-1-yl]-N-(2,5-difluorophenyl)benzamide] | 7.18 | 8.65 | 29.1 |
| O=C(Nc1ccccc1F)c1ccccc1-n1cnc(Cn2nc(-c3ccc(Cl)cc3)n(C[C@H](O)C(F)(F)F)c2=O)n1 [Example 305, 2-[3-({3-(4-Chlorophenyl)-5-oxo-4-[(2S)-3,3,3-trifluoro-2-hydroxypropyl]-4,5-dihydro-1H-1,2,4-triazol-1-yl}methyl)-1H-1,2,4-triazol-1-yl]-N-(2-fluorophenyl)benzamide] | 7.27 | 9.01 | 55.7 |
| Cc1c(F)cccc1NC(=O)c1ccccc1-n1cnc(Cn2nc(-c3ccc(Cl)cc3)n(C[C@H](O)C(F)(F)F)c2=O)n1 [Example 306, 2-[3-({3-(4-Chlorophenyl)-5-oxo-4-[(2S)-3,3,3-trifluoro-2-hydroxypropyl]-4,5-dihydro-1H-1,2,4-triazol-1-yl}methyl)-1H-1,2,4-triazol-1-yl]-N-(3-fluoro-2-methylphenyl)benzamide] | 6.91 | 8.80 | 77.2 |
| Cc1ccc(F)c(NC(=O)c2ccccc2-n2cnc(Cn3nc(-c4ccc(Cl)cc4)n(C[C@H](O)C(F)(F)F)c3=O)n2)c1 [Example 307, 2-[3-({3-(4-Chlorophenyl)-5-oxo-4-[(2S)-3,3,3-trifluoro-2-hydroxypropyl]-4,5-dihydro-1H-1,2,4-triazol-1-yl}methyl)-1H-1,2,4-triazol-1-yl]-N-(2-fluoro-5-methylphenyl)benzamide] | 6.76 | 8.78 | 106.1 |
| O=C(NN1CCOCC1)c1ccccc1-n1cnc(Cn2nc(-c3ccc(Cl)cc3)n(C[C@H](O)C(F)(F)F)c2=O)n1 [Example 308, 2-[3-({3-(4-Chlorophenyl)-5-oxo-4-[(2S)-3,3,3-trifluoro-2-hydroxypropyl]-4,5-dihydro-1H-1,2,4-triazol-1-yl}methyl)-1H-1,2,4-triazol-1-yl]-N-(morpholin-4-yl)benzamide] | 5.48 | 7.76 | 188.6 |
| Cc1ccc(NC(=O)c2ccccc2-n2cnc(Cn3nc(-c4ccc(Cl)cc4)n(C[C@H](O)C(F)(F)F)c3=O)n2)c(F)c1 [Example 309, 2-[3-({3-(4-Chlorophenyl)-5-oxo-4-[(2S)-3,3,3-trifluoro-2-hydroxypropyl]-4,5-dihydro-1H-1,2,4-triazol-1-yl}methyl)-1H-1,2,4-triazol-1-yl]-N-(2-fluoro-4-methylphenyl)benzamide] | 6.93 | 8.72 | 61.3 |
| O=C(Nc1ccc(F)cc1)c1ccccc1-n1cnc(Cn2nc(-c3ccc(Cl)cc3)n(C[C@H](O)C(F)(F)F)c2=O)n1 [Example 310, 2-[3-({3-(4-Chlorophenyl)-5-oxo-4-[(2S)-3,3,3-trifluoro-2-hydroxypropyl]-4,5-dihydro-1H-1,2,4-triazol-1-yl}methyl)-1H-1,2,4-triazol-1-yl]-N-(4-fluorophenyl)benzamide] | 6.67 | 8.59 | 82.7 |
